The results in this text go back to US6479435B1, “Diaryl ethers and processes for their preparation and herbicidal and desiccant compositions containing them” (ISK Americas Incorporated, priority 1997, dated 2002).

Format in all cases: in vivo
Series [1] has as its system soybean (Glycine max L., var. Pella 86, SOY). The series is described as follows: Post-emerge greenhouse test, crop damage rating. Conditions: 1000 g al/ha, 14 days after application. An excerpt:
(§1) A standard greenhouse herbicide activity screening system was used to evaluate the herbicidal efficacy and crop safety of these test compounds. Six broadleaf weed species including redroot pigweed (Amaranthus retroflexus, AMARE), velvetleaf (Abutilon theophrasti, ABUTH), sicklepod (Cassia obtusifolia, CASOB), ivyleaf morningglory (Ipomoea hederacea, IPOHE), lambsquarters (Chenopodium album, CHEAL) and common ragweed (Ambrosia artemisiifolia L., AMBEL) were used as test species. Four grass weed species including green foxtail (Setaria viridis, SETVI), barnyardgrass (Echinochloa crusgalli, ECHCG), Johnsongrass (Sorghum halepense, SORHA), and large crabgrass (Digitaria sanguinalis, DIGSA) were also used. In addition, three crop species, field corn (Zea mays L., var. Dekalb 535, CORN), soybean (Glycine max L., var. Pella 86, SOY), and upland rice (Oryza sp., var.Tebonnet, RICE) were included.
(§2) All test compounds were dissolved in acetone and applied to the test units in a volume of 187 l/ha. Test materials were applied at rates ranging from 125 g ai/ha to 1000 g ai/ha using a track sprayer equipped with a TJ8001E even flow flat fan spray nozzle. Plants were arranged on a shelf so that the top of the canopy (post-emerge) or top of the soil surface (pre-emerge) was 40-45 cm below the nozzle. Pressurized air was used to force the test solution through the nozzle as it was mechanically advanced (via electrically driven chain drive) over the top of all test plants/pots. This application simulates a typical commercial field herbicide application.
(§3) In the post-emerge test, a commercial non-ionic surfactant was also included (0.25% v/v) to enhance wetting of the leaf surfaces Qf target plants at rates ranging from 63 g ai/ha to 1000 g ai/ha. For post-emerge tests, seeds were planted 8-21 days prior to the test to allow emergence and good foliage development prior to application of the test substances. At the time of the post-emerge application, plants of all species were usually at the 2-3 leaf stage of development. Post-emerge test units were always bottom-watered.
(§4) At 14 days after application of the test materials, phytotoxicity ratings were recorded. A rating scale of 0-100 was used as previously described in Research Methods in Weed Science, 2nd edition, B. Truelove, Ed., Southern Weed Science Society, Auburn University, Auburn, Ala., 1977. Briefly, “0” corresponds to no damage and “100” corresponds to complete death of all plants in the test unit. This scale was used both to determine efficacy against weed species and damage to crop species. Herbicide activity data for various compounds of this invention, which are shown by compound number in Tables 1-9, are shown in Tables 13 and 14.

Series [2] shares this test system. The series is described as follows: Pre-emerge greenhouse test, crop damage rating. Conditions: 1000 g ai/ha, 14 days after application, rating scale 0-100.
Source text: as §1
(§5) All plants were grown in 10 cm square plastic pots which were filled with a sandy loam soil mix. For preemerge tests, seeds were planted one day prior to application of the test compounds. Immediately after application, test units of the pre-emerge applications were watered at the soil surface to incorporate the test materials. Subsequently, these test units were bottom-watered.
as §2, §4

For series [3], the system named is field corn (Zea mays L., var. Dekalb 535, CORN). The series is described as follows: Post-emerge greenhouse test, crop damage rating. Conditions: 1000 g al/ha, 14 days after application.
Source text: as §1, §2, §3, §4

Series [4] concerns upland rice (Oryza sp., var.Tebonnet, RICE). Kind of series: Post-emerge greenhouse test, crop damage rating. Conditions: 1000 g al/ha, 14 days after application.
Source text: as §1, §2, §3, §4

Series [5] concerns lambsquarters (Chenopodium album, CHEAL). The series is described as follows: Post-emerge greenhouse herbicide test, phytotoxicity rating. Conditions: 1000 g al/ha, 14 days after application.
Source text: as §1, §2, §3, §4

The subject of series [6] is ivyleaf morningglory (Ipomoea hederacea, IPOHE). The series is described as above. Conditions: 1000 g al/ha, 14 days after application.
Source text: as §1, §2, §3, §4

The test system of series [7] is redroot pigweed (Amaranthus retroflexus, AMARE). The description is as above. Conditions: 1000 g al/ha, 14 days after application.
Source text: as §1, §2, §3, §4

Series [8] has as its system Johnsongrass (Sorghum halepense, SORHA). Described as above. Conditions: 1000 g al/ha, 14 days after application.
Source text: as §1, §2, §3, §4

Series [9] relates to barnyardgrass (Echinochloa crusgalli, ECHCG). Described as above. Conditions: 1000 g al/ha, 14 days after application.
Source text: as §1, §2, §3, §4

Series [10] deals with green foxtail (Setaria viridis, SETVI). Described as above. Conditions: 1000 g al/ha, 14 days after application.
Source text: as §1, §2, §3, §4

The test system of series [11] is large crabgrass (Digitaria sanguinalis, DIGSA). The series is described as above. Conditions: 1000 g al/ha, 14 days after application.
Source text: as §1, §2, §3, §4

Series [12] deals with sicklepod (Cassia obtusifolia, CASOB). The description is as above. Conditions: 1000 g al/ha, 14 days after application.
Source text: as §1, §2, §3, §4

Series [13] has as its system velvetleaf (Abutilon theophrasti, ABUTH). The description is as above. Conditions: 1000 g al/ha, 14 days after application.
Source text: as §1, §2, §3, §4

In series [14] the test system is lambsquarters (Chenopodium album, CHEAL). Kind of series: Pre-emerge greenhouse herbicide test, phytotoxicity rating. Conditions: 1000 g ai/ha, 14 days after application, rating scale 0-100.
Source text: as §1, §5, §2, §4

Series [15] deals with ivyleaf morningglory (Ipomoea hederacea, IPOHE). Described as above. Conditions: 1000 g ai/ha, 14 days after application, rating scale 0-100.
Source text: as §1, §5, §2, §4

Series [16] has as its system redroot pigweed (Amaranthus retroflexus, AMARE). The series is described as above. Conditions: 1000 g ai/ha, 14 days after application, rating scale 0-100.
Source text: as §1, §5, §2, §4

Series [17] concerns Johnsongrass (Sorghum halepense, SORHA). The description is as above. Conditions: 1000 g ai/ha, 14 days after application, rating scale 0-100.
Source text: as §1, §5, §2, §4

Series [18] has as its system barnyardgrass (Echinochloa crusgalli, ECHCG). Described as above. Conditions: 1000 g ai/ha, 14 days after application, rating scale 0-100.
Source text: as §1, §5, §2, §4

In series [19] the test system is green foxtail (Setaria viridis, SETVI). The series is described as above. Conditions: 1000 g ai/ha, 14 days after application, rating scale 0-100.
Source text: as §1, §5, §2, §4

In series [20] the test system is large crabgrass (Digitaria sanguinalis, DIGSA). The description is as above. Conditions: 1000 g ai/ha, 14 days after application, rating scale 0-100.
Source text: as §1, §5, §2, §4

Series [21] concerns sicklepod (Cassia obtusifolia, CASOB). Described as above. Conditions: 1000 g ai/ha, 14 days after application, rating scale 0-100.
Source text: as §1, §5, §2, §4

The test system of series [22] is velvetleaf (Abutilon theophrasti, ABUTH). The series is described as above. Conditions: 1000 g ai/ha, 14 days after application, rating scale 0-100.
Source text: as §1, §5, §2, §4

Series [23] relates to field corn (Zea mays L., var. Dekalb 535, CORN). The series is described as follows: Pre-emerge greenhouse test, crop damage rating. Conditions: 1000 g ai/ha, 14 days after application, rating scale 0-100.
Source text: as §1, §5, §2, §4

Series [24] deals with upland rice (Oryza sp., var.Tebonnet, RICE). Kind of series: Pre-emerge greenhouse test, crop damage rating. Conditions: 1000 g ai/ha, 14 days after application, rating scale 0-100.
Source text: as §1, §5, §2, §4

The structures appear in SMILES notation.

As to `O=c1cc2n(c(=O)n1-c1cc(Oc3ccccc3[N+](=O)[O-])c(Cl)cc1F)CCC2` [Compound 5-1], the “SOY crop damage rating (0-100)” value in series [1] is listed as 40. In addition, the “crop damage rating SOY” value in series [2] is on record as 55. In addition, the “CORN crop damage rating (0-100)” value in [3] was determined as 0. The “RICE crop damage rating (0-100)” value in [4] was found to be 10. The “CHEAL phytotoxicity rating (0-100)” value in series [5] was determined as 80. Also, the “IPOHE phytotoxicity rating (0-100)” value in series [6] was 90. Also, the “AMARE phytotoxicity rating (0-100)” value in series [7] came out at 30. Also, the “SORHA phytotoxicity rating (0-100)” value in series [8] was found to be 10. Also, the “ECHCG phytotoxicity rating (0-100)” value in [9] was 30. For the same compound, in series [10], the “SETVI phytotoxicity rating (0-100)” value was found to be 20. Further, the “DIGSA phytotoxicity rating (0-100)” value in series [11] turned out to be 0. The “CASOB phytotoxicity rating (0-100)” value in [12] came to 10. In [13], the “ABUTH phytotoxicity rating (0-100)” value amounted to 100. In addition, the “phytotoxicity rating CHEAL” value in [14] is reported as 100. Besides, in [15], the “phytotoxicity rating IPOHE” value is listed as 70. Moreover, the “phytotoxicity rating AMARE” value in series [16] was 99. Moreover, the “phytotoxicity rating SORHA” value in series [17] is listed as 90. Also, the “phytotoxicity rating ECHCG” value in [18] was determined as 95. Besides, in series [19], the “phytotoxicity rating SETVI” value worked out at 99. The “phytotoxicity rating DIGSA” value in [20] turned out to be 100. In addition, the “phytotoxicity rating CASOB” value in series [21] was 40. The “phytotoxicity rating ABUTH” value in series [22] is reported as 100. Moreover, the “crop damage rating CORN” value in [23] is given as 5. In addition, in series [24], the “crop damage rating RICE” value is on record as 70.

With `CCOC(=O)C(C)Oc1ccc(Oc2cc(-n3c(=O)cc4n(c3=O)CCC4)c(F)cc2Cl)cc1` (stereo not drawn) [Compound 5-6], the “SOY crop damage rating (0-100)” value in series [1] amounted to 80. The “crop damage rating SOY” value in [2] came to 60. Also, the “CORN crop damage rating (0-100)” value in series [3] is listed as 80. Also, in [4], the “RICE crop damage rating (0-100)” value stood at 60. The “CHEAL phytotoxicity rating (0-100)” value in series [5] worked out at 100. In series [6], the “IPOHE phytotoxicity rating (0-100)” value was determined as 100. For the same compound, the “AMARE phytotoxicity rating (0-100)” value in [7] is reported as 90. Besides, in series [8], the “SORHA phytotoxicity rating (0-100)” value is 95. Also, in series [9], the “ECHCG phytotoxicity rating (0-100)” value was determined as 95. Further, the “SETVI phytotoxicity rating (0-100)” value in series [10] is 50. The “DIGSA phytotoxicity rating (0-100)” value in series [11] turned out to be 40. Besides, in [12], the “CASOB phytotoxicity rating (0-100)” value amounted to 40. Further, the “ABUTH phytotoxicity rating (0-100)” value in [13] is given as 100. Moreover, in [14], the “phytotoxicity rating CHEAL” value worked out at 100. Also, the “phytotoxicity rating IPOHE” value in series [15] is recorded as 100. Also, in series [16], the “phytotoxicity rating AMARE” value came to 100. For the same compound, in series [17], the “phytotoxicity rating SORHA” value came out at 50. Besides, the “phytotoxicity rating ECHCG” value in series [18] is 70. Also, in series [19], the “phytotoxicity rating SETVI” value is listed as 100. The “phytotoxicity rating DIGSA” value in [20] was 70. Also, in [21], the “phytotoxicity rating CASOB” value stood at 40. In addition, the “phytotoxicity rating ABUTH” value in series [22] was determined as 100. For the same compound, the “crop damage rating CORN” value in series [23] was found to be 40. Moreover, the “crop damage rating RICE” value in series [24] is recorded as 80.
